Measurements taken from article PMC9719540, “Synthesis of an amphiphilic vancomycin aglycone derivative inspired by polymyxins: overcoming glycopeptide resistance in Gram-positive and Gram-negative bacteria in synergy with teicoplanin in vitro” (Scientific Reports, 2022).
Several values for one entry are separate records, joined by “and”; a condition that tells them apart may be missing. Equal entries are not always repeated. Structures can show the parent of a compound that is named as a salt. Where two headings read alike, the source gives them in different places.

Tests used:
[1] = system: Acinetobacter baumannii ATCC BAA1605; assay: Antibacterial activity (MIC); format: cell-based
Procedure: (§1) The routine antibacterial evaluations were carried out as it was described in our previous publication. Antimicrobial synergy was determined by evaluating the fractional inhibitory concentration (FIC) index and was characterized by a conventional checkerboard assay. Bacteria grown to mid-logarithmic phase in MHB were pre-incubated with serially diluted concentrations of teicoplanin or vancomycin and compound 14. The sum of the FICs (ΣFIC) was calculated with the equation ΣFIC = FICA + FICB = (CA/MICA) + (CB/MICB), where MICA and MICB are the MICs of antimicrobial A and B alone, respectively, and CA and CB are the inhibitory concentrations of the drugs when combined, respectively. Synergy was defined as a ΣFICs ≤ 0.5 and additive activity was defined as a ΣFICs > 0.5 ≤ 1.0.

[2] = system: Bacillus subtilis ATCC 6633; assay: Antibacterial activity (MIC); format: cell-based; details: ATCC6633
Procedure: as §1

[3] = system: Enterococcus faecalis 15376 VanA; assay: Antibacterial activity (MIC); format: cell-based
Procedure: as §1

[4] = system: Enterococcus faecalis ATCC 29212; assay: Antibacterial activity (MIC); format: cell-based; details: for MIC: ATCC29212
Procedure: as §1

[5] = system: Enterococcus faecalis ATCC 51299 VanB; assay: Antibacterial activity (MIC); format: cell-based
Procedure: as §1

[6] = system: Escherichia coli ATCC 25218; assay: Antibacterial activity (MIC); format: cell-based; details: ATCC25218
Procedure: as §1

[7] = system: Klebsiella pneumoniae ST258 clone K 160/09; assay: Antibacterial activity (MIC); format: cell-based
Procedure: as §1

[8] = system: Pseudomonas aeruginosa ATCC 27853; assay: Antibacterial activity (MIC); format: cell-based; details: ATCC27853
Procedure: as §1

[9] = system: Staphylococcus aureus MRSA ATCC 33591; assay: Antibacterial activity (MIC); format: cell-based
Procedure: as §1

[10] = system: Staphylococcus aureus MSSA ATCC 29213; assay: Antibacterial activity (MIC); format: cell-based
Procedure: as §1

[11] = system: Staphylococcus epidermidis ATCC 35984 biofilm; assay: Antibacterial activity (MIC); format: cell-based
Procedure: as §1

[12] = system: Staphylococcus epidermidis mecA; assay: Antibacterial activity (MIC); format: cell-based
Procedure: as §1

[13] = system: Acinetobacter baumannii ATCC BAA1605; assay: Checkerboard assay, combined susceptibility (FIC index); format: cell-based; details: for MIC of antibiotic in comb.: antibiotic combined with 14; for MIC of antibiotic alone: checkerboard
Procedure: (§2) To determine the activity profile of teicoplanin and vancomycin in combination with compound 14, combined susceptibility tests were perfomed against […] Gram negative strains including Escherichia coli, Pseudomonas aeruginosa, Acinetobacter baumannii and Klebsiella pneumoniae bacteria. The combined effects of compound 14 and the glycopeptide antibiotics were determined by conventional checkerboard assays (images of the chequerboard assay for synergistic combinations are shown in Supplementary Information S1).
as §1

[14] = system: Escherichia coli ATCC 25218; assay: as above; format: cell-based; details: for MIC of antibiotic in comb.: antibiotic combined with 14; for MIC of antibiotic alone: checkerboard
Procedure: as §2, §1

[15] = system: Klebsiella pneumoniae ST258 clone K 160/09; assay: as above; format: cell-based; details: for MIC of antibiotic in comb.: antibiotic combined with 14
Procedure: as §2, §1

[16] = system: Pseudomonas aeruginosa ATCC 27853; assay: as above; format: cell-based; details: for MIC of antibiotic in comb.: antibiotic combined with 14; for MIC of antibiotic alone: checkerboard
Procedure: as §2, §1

[17] = MTT cytotoxicity (cell viability); format: cell-based, human; details: human; Caco-2 cells, MTT, 72 h
Procedure: (§3) Human Caco-2 intestinal epithelial cells were obtained from European Collection of Cell Cultures (ECACC, UK) and grown routinely in Dulbecco’s Minimum Essential Medium (DMEM), supplemented with 10% fetal bovine serum (FBS), 1% non-essential amino acid and 1% penicillin–streptomycin solution.
(§4) In cell viability experiments, 1 × 10^4 hCMEC/D3 or Caco-2 cells/well were seeded on 96-weel plates. After 24 h of incubation, cells were treated with test solutions in different concentrations. The stock solution of the test molecule was dissolved in DMSO and further diluted with cell culture medium to prepare test solutions. […] The control group received culture medium. Cells were incubated with the test solutions for 72 h at 37 °C in an atmosphere of 5% CO2, and test solutions were replaced with 0.05 mg/ml 3-(4,5-dimethylthiazol-2-yl)-2,5-diphenyltetrazolium bromide (MTT) solutions prepared in PBS. Cells were incubated with MTT solutions for 4 h at 37 °C and the formed dark blue formazan crystals were dissolved in acidic isopropanol (isopropanol: 1.0 N hydrochloric acid = 25:1). The absorbance was measured at 570 nm against a 690 nm reference wavelength with a Thermo Fisher Multiskan Go microplate reader (Thermo Fisher, Waltham, MA, USA). Cell viability was expressed as the percentage of the untreated control and IC50 values were calculated by GraphPad Prism 7 software (GraphPad Software Inc., San Diego, CA, USA).

Caco-2 cells [18] = assay: MTT cytotoxicity (cell viability); format: cell-based, human
Procedure: as §3, §4

hCMEC/D3 cells [19] = assay: MTT cytotoxicity (cell viability); format: cell-based, human
Procedure: (§5) The human immortalized hCMEC/D3 cells (Merck KGaA, Darmstadt, Germany, Cat. # SCC066) were cultured in EndoGRO-MV Complete Culture Media (supplemented with the components of the kit and fibroblast growth factor 2 (FGF-2) at 1 ng/mL final concentration).
as §4

Caco-2 cells [20] = assay: MTT cytotoxicity of combinations, checkerboard configuration; format: cell-based, human; details: teicoplanin : compound 14 32:2 µg/mL
Procedure: as §3
as §4, with “in PBS. […] The absorbance” for “in PBS. Cells were incubated with MTT solutions for 4 h at 37 °C and the formed dark blue formazan crystals were dissolved in acidic isopropanol (isopropanol: 1.0 N hydrochloric acid = 25:1). The absorbance”, “CA, USA). […]” for “CA, USA).”

hCMEC/D3 cells [21] = assay: as above; format: cell-based, human
Procedure: as §5
as §4, with “CA, USA). […]” for “CA, USA).”

[22] = between 0.082 and 200 µM (0.155–375.94 µg/mL)

Compound: CN[C@H](CC(C)C)C(=O)N[C@H]1C(=O)N[C@@H](CC(N)=O)C(=O)N[C@H]2C(=O)N[C@H]3C(=O)N[C@H](C(=O)N[C@H](C(=O)O)c4cc(O)cc(O)c4-c4cc3ccc4O)[C@H](O)c3ccc(c(Cl)c3)Oc3cc2cc(c3O[C@@H]2O[C@H](CO)[C@@H](O)[C@H](O)[C@H]2O[C@H]2C[C@](C)(N)[C@H](O)[C@H](C)O2)Oc2ccc(cc2Cl)[C@H]1O [Vancomycin]
- MIC ([1]; Acinetobacter baumannii, ATCCBAA1605): 128 µg/mL
- MIC ([2]; Bacillus subtilis): 0.5 µg/mL
- MIC ([3]; Enterococcus faecalis, 15376VANA): 256 µg/mL
- MIC ([4]; Enterococcus faecalis): 1 µg/mL
- MIC ([5]; Enterococcus faecalis, ATCC51299): 128 µg/mL
- MIC ([6]; Escherichia coli): 256 µg/mL
- MIC ([7]; Klebsiella pneumoniae): 256 µg/mL
- MIC ([8]; Pseudomonas aeruginosa): 256 µg/mL
- MIC ([9]; Staphylococcus aureus): 0.5 µg/mL
- MIC ([10]; Staphylococcus aureus): 0.5 µg/mL
- MIC ([11]; Staphylococcus epidermidis, ATCC35984): 2 µg/mL
- MIC ([12]; Staphylococcus epidermidis): 4 µg/mL
- MIC of antibiotic in comb. [13]: 64 µg/mL
- MIC of antibiotic alone [13]: 128 µg/mL
- MIC of antibiotic in comb. [14]: 2 µg/mL
- MIC of antibiotic alone [14]: 256 µg/mL
- MIC of antibiotic in comb. [15]: 256 µg/mL
- MIC of antibiotic alone ([15]; checkerboard): 256 µg/mL
- MIC of antibiotic in comb. [16]: 16 µg/mL
- MIC of antibiotic alone [16]: 256 µg/mL
- IC50 at 72 h [17]: 54.2 µM and 78.7 µg/mL

Compound: CCCCCCCCCC(=O)N[C@H](CC(C)C)C(=O)N[C@H]1C(=O)N[C@@H](CC(N)=O)C(=O)N[C@H]2C(=O)N[C@H]3C(=O)N[C@H](C(=O)N[C@H](C(=O)NCCN)c4cc(OCCN)cc(OCCN)c4-c4cc3ccc4OCCN)[C@H](O)c3ccc(c(Cl)c3)Oc3cc2cc(c3OCCN)Oc2ccc(cc2Cl)[C@H]1O [Compound 14, Tetraaminoethyl N-decanoyl norvancomycin aglycone aminoethyl amide trifluoroacetate salt]
- MIC ([1]; ATCCBAA1605, Acinetobacter baumannii ATCC BAA1605, read-out: MIC): 128 µg/mL
- MIC ([2]; Bacillus subtilis ATCC 6633, read-out: MIC): 4 µg/mL
- MIC ([3]; Enterococcus faecalis 15376 VanA, read-out: MIC): 8 µg/mL
- times more potent than vancomycin (MIC ratio) ([3]; resistant VanA E. faecalis): 32 times
- MIC ([4]; Enterococcus faecalis ATCC 29212, read-out: MIC): 16 µg/mL
- times less active than vancomycin (MIC ratio) ([4]; vancomycin sensitive E. faecalis ATCC 29212): 16 times
- MIC ([5]; ATCC51299, Enterococcus faecalis ATCC 51299 VanB, read-out: MIC): 32 µg/mL
- MIC ([6]; Escherichia coli ATCC 25218, read-out: MIC): 128 µg/mL
- MIC ([7]; Klebsiella pneumoniae ST258 clone K 160/09, read-out: MIC): 256 µg/mL
- MIC ([8]; Pseudomonas aeruginosa ATCC 27853, read-out: MIC): 128 µg/mL
- MIC ([9]; Staphylococcus aureus MRSA ATCC 33591, read-out: MIC): 8 µg/mL
- MIC ([10]; Staphylococcus aureus MSSA ATCC 29213, read-out: MIC): 8 µg/mL
- MIC ([11]; ATCC35984, Staphylococcus epidermidis ATCC 35984 biofilm, read-out: MIC): 4 µg/mL
- MIC ([12]; Staphylococcus epidermidis mecA, read-out: MIC): 2 µg/mL
- FIC index ([13]; 14 combined with teicoplanin): 0.2656
- FIC index ([13]; 14 combined with vancomycin): 0.75
- MIC ([13]; ATCCBAA1605, checkerboard, read-out: MIC of 14 alone): 128 µg/mL
- MIC of 14 in comb. ([13]; combined with teicoplanin): 2 µg/mL
- MIC of 14 in comb. ([13]; combined with vancomycin): 32 µg/mL
- FIC index ([14]; 14 combined with teicoplanin): 0.2578
- FIC index ([14]; 14 combined with vancomycin): 0.5078
- MIC ([14]; ATCC25218, checkerboard, read-out: MIC of 14 alone): 256 µg/mL
- MIC of 14 in comb. ([14]; combined with teicoplanin): 32 µg/mL
- MIC of 14 in comb. ([14]; combined with vancomycin): 64 µg/mL
- Combined effect ([15]; 14 combined with teicoplanin): neither synergy nor additive activity and None
- Combined effect ([15]; 14 combined with vancomycin): neither synergy nor additive activity and None
- MIC ([15]; checkerboard, read-out: MIC of 14 alone): 256 µg/mL
- MIC of 14 in comb. ([15]; combined with teicoplanin): 256 µg/mL
- MIC of 14 in comb. ([15]; combined with vancomycin): 256 µg/mL
- FIC index ([16]; 14 combined with teicoplanin): 0.375
- FIC index ([16]; 14 combined with vancomycin): 0.5625
- MIC ([16]; ATCC27853, checkerboard, read-out: MIC of 14 alone): 256 µg/mL
- MIC of 14 in comb. ([16]; combined with teicoplanin): 32 µg/mL
- MIC of 14 in comb. ([16]; combined with vancomycin): 64 µg/mL
- IC50 (Caco-2 cells [18]; MTT, 72 h): > 100 µM
- IC50 (cytotoxicity) (Caco-2 cells [18]; MTT, 72 h): > 206.86 µg/mL
- IC50 (hCMEC/D3 cells [19]; MTT, 72 h): 56.2 ± 7.74 µM
- IC50 (cytotoxicity) (hCMEC/D3 cells [19]; MTT, 72 h): 116.29 ± 16 µg/mL
- toxicity of combination (Caco-2 cells [20]): not toxic
- cell viability (hCMEC/D3 cells [21]; teicoplanin : compound 14 2:32 µg/mL, percentage of untreated control): 81.4%
- toxicity of combination (hCMEC/D3 cells [21]; teicoplanin : compound 14 32:2 µg/mL): not toxic

Compound: Teicoplanin
- MIC ([1]; Acinetobacter baumannii ATCC BAA1605): 128 µg/mL
- MIC ([2]; Bacillus subtilis): 0.5 µg/mL
- MIC ([3]; Enterococcus faecalis 15376 VanA): 256 µg/mL
- MIC ([4]; Enterococcus faecalis): 1 µg/mL
- MIC ([5]; Enterococcus faecalis ATCC 51299 VanB): 0.5 µg/mL
- MIC ([6]; Escherichia coli): 256 µg/mL
- MIC ([7]; Klebsiella pneumoniae ST258 clone K 160/09): 256 µg/mL
- MIC ([8]; Pseudomonas aeruginosa): 256 µg/mL
- MIC ([9]; Staphylococcus aureus MRSA ATCC 33591): 0.5 µg/mL
- MIC ([10]; Staphylococcus aureus MSSA ATCC 29213): 0.5 µg/mL
- MIC ([11]; Staphylococcus epidermidis ATCC 35984 biofilm): 4 µg/mL
- MIC ([12]; Staphylococcus epidermidis mecA): 16 µg/mL
- MIC of antibiotic in comb. [13]: 32 µg/mL
- MIC of antibiotic alone [13]: 128 µg/mL
- MIC of antibiotic in comb. [14]: 2 µg/mL
- MIC of antibiotic alone [14]: 256 µg/mL
- MIC of antibiotic in comb. [15]: 256 µg/mL
- MIC of antibiotic alone ([15]; checkerboard): 256 µg/mL
- MIC of antibiotic in comb. [16]: 32 µg/mL
- MIC of antibiotic alone [16]: 256 µg/mL
- cytotoxic effect (Caco-2 cells [18]; [22]): did not show cytotoxic effect
- cytotoxic effect (hCMEC/D3 cells [19]; [22]): did not show cytotoxic effect
